{
  "source": "patent US20240397944A1",
  "about": "“METHODS FOR BIOFILM DISRUPTION” (Neolixir Limited, priority 2021, published 2024)",
  "key": {"[1]": {"details": "cited from earlier work"}, "[2]": {"tested_on": "P. aeruginosa clinical isolates from patients with cystic fibrosis", "test": "Crystal violet staining of biofilm microcolonies from clinical isolates", "type": "cell-based", "details": "for Biofilm breakdown (% from baseline) / Isolates responsive to breakdown (% of isolates): 0.5-1.25 ug/ml, 24 hours"}, "[3]": {"tested_on": "P. aeruginosa (ATCC 27853)", "test": "Antimicrobial activity on planktonic bacteria, flow cytometry and broth microdilution", "details": "for MIC: Pseudomonas aeruginosa, ATCC27853, read-out: minimum inhibitory concentration (MIC); for concentration at which first significant phenotypic change (decrease in SYTO 9 fluorescence) was observed: flow cytometry, 3 hours", "experimental": "(§3) This was undertaken in parallel with a conventional broth microdilution (BMD) assay.\n(§4) Two-fold serial dilutions of D- or L-lactate were performed in a 96-well plate, ranging from 0.008 grams per litre to 8 g/L with a volume of 50 μL per well.\n(§5) The bacterial suspensions were prepared from cultures grown overnight in trypticase soya broth (TSB). Each culture was diluted 1:1000 in Hanks buffered saline solution (HBSS), stained with 1 μL of SYTO® 9, incubated for a minimum of 8 minutes with shaking, and enumerated by flow cytometry. The TSB cultures were then adjusted to 2×10^5 cells per mL in CAMHB.\n(§6) To the replicate dilution series of lactic acids, 50 μL of bacterial suspension was added for a final volume of 100 μL per well, each row containing a concentration gradient ranging from 0.004 to 4 g/L. There were 3 organisms per plate (E. coli, P. aeruginosa, S. aureus), set up in duplicate. […] These wells were representative of the suspension density at the time of inoculation.\n(§7) For conventional BMD, the incubation time was 24 hours. For flow cytometry, the incubation time was 3 hours. For flow cytometry, following incubation 100 μL of HBSS, containing SYTO® 9 at a concentration of 10 μM was added to each well of the plate for a final dye concentration of 5 μM. The plates were then incubated at ambient temperature in the dark for 10 minutes, loaded onto the Attune™ Autosampler, and the data acquired. The plates were run simultaneously on two different Attune™ cytometers."}, "[4]": {"tested_on": "E. coli (ATCC 25922)", "test": "Antimicrobial activity on planktonic bacteria, flow cytometry and broth microdilution", "details": "for MIC: Escherichia coli, ATCC25922, read-out: minimum inhibitory concentration (MIC); for concentration at which first significant phenotypic change (decrease in SYTO 9 fluorescence) was observed: flow cytometry, 3 hours", "experimental": "as §3, §4, §5, §6, §7"}, "[5]": {"tested_on": "P. aeruginosa clinical isolates from patients with cystic fibrosis", "test": "Resazurin staining of biofilm microcolonies from clinical isolates", "details": "for Altered metabolism with treatment (% of isolates) / Metabolism change (% from baseline): 0.5-1.25 ug/ml, 24 hours", "experimental": "Cultures of interest were thawed and streaked out on blood agar plates and allowed to grow at 37° C., 5% CO2 for 12-24 hours until suitable growth was achieved to enable further culturing. An isolated colony was looped into 5 ml of LB broth and incubated overnight at 37° C., 5% CO2.\nStock cultures were diluted 1:1000 in 1% of appropriate media (LB for mucoid P. aeruginosa strains; M63 medium was used for P. aeruginosa rough strains 001-11R; PMM for all other strains) to achieve approximately 10^8 cfu/ml (confirmed by measuring 0.02 absorbance units, approximately 1.8 ul in 2 ml of media). Diluted working cultures were mixed well and seeded at 200 ul/well across a 96 well microtitre plate, with biofilm formation complete approximately 24-48 hours following seeding.\nTreatments were completed in duplicate for all bacterial strains across the dose range used.\nViable cells reduce the blue resazurin dye to the pink-fluorescent resorufin form. Following incubation fluorescence was quantified by excitation wavelength of 540 nm and an emission wavelength of 590 nm using Enspire microplate reader."}, "[6]": {"tested_on": "Pseudomonas aeruginosa (WACC91 and PA-001) biofilm", "test": "Crystal violet staining of biofilm-protected P. aeruginosa microcolonies", "type": "cell-based", "protocol": "Laboratory strains of Pseudomonas aeruginosa (WACC91 and PA-001) were thawed (stored as 50% glycerol stocks at −70° C.+2° C.) and streaked out on blood agar plates. […] In this case cultures were propagated to stationary phase to induce stress responses needed to induce biofilm formation on seeding for treatment. […] Biofilm formation was complete approximately 24-48 hours following seeding, this was confirmed by a minimum of 1.8 absorbance units at 600 nm. Prebiotic solution collected from C1 was applied to B0 cultures that had achieved biofilm formation. A 10 dose dilution series of the prebiotic test solution in PMM was prepared (Table 2) to determine the optimal dose range for biofilm disruption of B0 cultures, with 50 μl total volume added to each B0 culture. […] The CV stain was solubilised with 125 ul of 30% acetic acid and absorbance to indicate biofilm density (also referred to as biofilm biomass) was quantified at 550 nm following an incubation of 15 minutes at room temperature. […] Biofilm formation was complete approximately 24-48 hours following seeding as confirmed by a minimum of 1.8 absorbance units at 600 nm. […] The CV stain was solubilised with 125 ul of 30% acetic acid and absorbance to indicate biofilm biomass quantified at 550 nm following an incubation of 15 minutes."}, "[7]": {"tested_on": "S. aureus (ATCC 33592)", "test": "Antimicrobial activity on planktonic bacteria, flow cytometry and broth microdilution", "details": "for MIC: Staphylococcus aureus, ATCC33592, read-out: minimum inhibitory concentration (MIC); for concentration at which first significant phenotypic change (decrease in SYTO 9 fluorescence) was observed: flow cytometry, 3 hours", "experimental": "as §3, §4, §5, §6, §7"}, "[8]": {"tested_on": "Pseudomonas aeruginosa (WACC91) biofilm-protected microcolonies", "test": "Resazurin staining, bacterial metabolic activity of biofilm-protected cultures", "type": "cell-based", "protocol": "Laboratory strains of Pseudomonas aeruginosa (WACC91 and PA-001) were thawed (stored as 50% glycerol stocks at −70° C.+2° C.) and streaked out on blood agar plates. […] In this case cultures were propagated to stationary phase to induce stress responses needed to induce biofilm formation on seeding for treatment.\nBiofilm formation was complete approximately 24-48 hours following seeding, this was confirmed by a minimum of 1.8 absorbance units at 600 nm.\nPrebiotic solution collected from C1 was applied to B0 cultures that had achieved biofilm formation. A 10 dose dilution series of the prebiotic test solution in PMM was prepared (Table 2) to determine the optimal dose range for biofilm disruption of B0 cultures, with 50 μl total volume added to each B0 culture.\nA 12-fold serial dilution of tobramycin (99% pure tobramycin sulfate powder, Research Products International) standards were prepared in PMM (8 ng/ml-16 ug/ml), to act as a reference point for assessing biofilm disruption activity observed by the prebiotic test treatment (Table 2). Tobramycin is an antibiotic commonly used to treat chronic respiratory bacterial infections, particularly Pseudomonas aeruginosa. A total of 50 ul of tobramycin standards were added to B0 cultures that had achieved biofilm formation. […]"}, "[9]": {"details": "Octanol-Water; cited from earlier work"}, "[10]": {"tested_on": "S. epidermidis biofilm", "test": "Crystal violet biofilm formation and mature biofilm assay", "type": "cell-based, Staphylococcus epidermidis", "details": "added at t=0 (de novo forming) or t=24 hours (established), pH 7.0, FIG. 5", "protocol": "(§1) After addition of treatments, all plates were then incubated for 24 hours at 37° C.\n(§2) Following incubation at room temperature for 15 minutes the microtiter plates were washed 3-4 times with water by submerging in water, with blotting to rid the plate of all excess cells and dye. Plates were left to dry overnight. The CV stain was solubilised with 125 ul of 30% acetic acid and absorbance to indicate biofilm biomass quantified at 550 nm following an incubation of 15 minutes, normalised to vehicle only."}, "[11]": {"tested_on": "Pseudomonas aeruginosa biofilm", "test": "Crystal violet biofilm formation and mature biofilm assay", "type": "cell-based", "details": "added at t=0 (de novo forming) or t=24 hours (established), pH 7.0, FIG. 5", "protocol": "as §1, §2"}, "[12]": {"tested_on": "Staphylococcus aureus biofilm", "test": "Crystal violet biofilm formation and mature biofilm assay", "type": "cell-based", "details": "added at t=0 (de novo forming) or t=24 hours (established), pH 7.0, FIG. 5", "protocol": "as §1, §2"}, "[13]": {"details": "rabbit; cited from earlier work"}, "[14]": {"details": "rat, 4 h; cited from earlier work"}},
  "data": [
    {"smiles": "CCCCC(O)C(=O)O", "note": "(stereo not drawn) [2-hydroxyhexanoic acid]", "values": [
      {"measurement": "Water solubility", "setting": "[1]", "value": 270, "unit": "mM"}
    ]},
    {"smiles": "C[C@@H](O)C(=O)O", "note": "[D-lactic acid, (2R)-2-hydroxypropanoic acid]", "values": [
      {"measurement": "Biofilm breakdown (% from baseline)", "setting": "[2]; Mucoid isolates", "value": 17.2, "unit": "% from baseline"},
      {"measurement": "Isolates responsive to breakdown (% of isolates)", "setting": "[2]; Mucoid isolates", "value": "60 % of isolates"},
      {"measurement": "Biofilm breakdown (% from baseline)", "setting": "[2]; Non-mucoid isolates", "value": 23, "unit": "% from baseline"},
      {"measurement": "Isolates responsive to breakdown (% of isolates)", "setting": "[2]; Non-mucoid isolates", "value": "53.8 % of isolates"},
      {"measurement": "share of all strains showing evidence of biofilm disruption", "setting": "[2]; all strains tested", "value": "Greater than 50%"},
      {"measurement": "MIC", "setting": "[3]", "value": 4000, "unit": "µg/mL"},
      {"measurement": "concentration at which first significant phenotypic change (decrease in SYTO 9 fluorescence) was observed", "setting": "[3]", "value": 1, "unit": "g/L"},
      {"measurement": "MIC", "setting": "[4]", "value": 4000, "unit": "µg/mL"},
      {"measurement": "concentration at which first significant phenotypic change (decrease in SYTO 9 fluorescence) was observed", "setting": "[4]", "value": 1, "unit": "g/L"},
      {"measurement": "Altered metabolism with treatment (% of isolates)", "setting": "[5]; Mucoid isolates", "value": "75 % of isolates"},
      {"measurement": "Metabolism change (% from baseline)", "setting": "[5]; Mucoid isolates", "value": 37, "unit": "% from baseline"},
      {"measurement": "Altered metabolism with treatment (% of isolates)", "setting": "[5]; Non-mucoid isolates", "value": "69.2 % of isolates"},
      {"measurement": "Metabolism change (% from baseline)", "setting": "[5]; Non-mucoid isolates", "value": 46.1, "unit": "% from baseline"},
      {"measurement": "share of all strains tested showing a change in metabolic activity", "setting": "[5]; all strains tested", "value": "More than 65%"},
      {"measurement": "active dose range for biofilm disruption", "setting": "[6]; pure grade standards run against prebiotic test solution dilutions, methods of Example 1", "value": "0.25 to 1.25", "unit": "mg/mL"},
      {"measurement": "MIC", "setting": "[7]", "value": 4000, "unit": "µg/mL"},
      {"measurement": "concentration at which first significant phenotypic change (decrease in SYTO 9 fluorescence) was observed", "setting": "[7]", "value": 1, "unit": "g/L"}
    ]},
    {"smiles": "NC[C@H]1O[C@H](O[C@H]2[C@H](O)[C@@H](O[C@H]3O[C@H](CO)[C@@H](O)[C@H](N)[C@H]3O)[C@H](N)C[C@@H]2N)[C@H](N)C[C@@H]1O", "note": "[tobramycin]", "values": [
      {"measurement": "concentrations at which reduced metabolic activity was observed", "setting": "[8]; WACC91, 24 hrs treatment, supernatants", "value": "1 to 16", "unit": "µg/mL"},
      {"measurement": "inhibition of metabolic activity relative to prebiotic test solution (90%)", "setting": "[8]; bioactive dose 16 ug/ml", "value": "comparable"},
      {"measurement": "reduced biofilm density", "setting": "[6]; tobramycin 16 ug/ml, bioactive dose", "value": "80-90%"}
    ]},
    {"smiles": "O=C(O)C(O)c1ccccc1", "note": "(stereo not drawn) [2-hydroxy-2-phenylacetic acid]", "values": [
      {"measurement": "Log P", "setting": "[9]", "value": 0.67},
      {"measurement": "Water solubility", "setting": "[1]", "value": 1140, "unit": "mM"}
    ]},
    {"smiles": "CCC(O)C(=O)O", "note": "(stereo not drawn) [2-hydroxybutanoic acid]", "values": [
      {"measurement": "Water solubility", "setting": "[1]", "value": 1930, "unit": "mM"}
    ]},
    {"smiles": "C[C@H](O)C(=O)O", "note": "[L-lactic acid, reference compound]", "values": [
      {"measurement": "MIC", "setting": "[3]", "value": 4000, "unit": "µg/mL"},
      {"measurement": "concentration at which first significant phenotypic change (decrease in SYTO 9 fluorescence) was observed", "setting": "[3]", "value": 1, "unit": "g/L"},
      {"measurement": "MIC", "setting": "[4]", "value": 4000, "unit": "µg/mL"},
      {"measurement": "concentration at which first significant phenotypic change (decrease in SYTO 9 fluorescence) was observed", "setting": "[4]", "value": 1, "unit": "g/L"},
      {"measurement": "biofilm mass (crystal violet) compared to baseline", "setting": "[10]", "value": "not"},
      {"measurement": "biofilm mass (crystal violet) compared to baseline", "setting": "[11]", "value": "not"},
      {"measurement": "biofilm mass (crystal violet) compared to baseline", "setting": "[12]", "value": "not"},
      {"measurement": "MIC", "setting": "[7]", "value": 4000, "unit": "µg/mL"},
      {"measurement": "concentration at which first significant phenotypic change (decrease in SYTO 9 fluorescence) was observed", "setting": "[7]", "value": 1, "unit": "g/L"}
    ]},
    {"smiles": "CC(O)C(=O)O", "note": "(racemic) [racemic mix (D/L), D/L lactic acid]", "values": [
      {"measurement": "biofilm mass (crystal violet) compared to baseline", "setting": "[10]", "value": "variable results"},
      {"measurement": "biofilm mass (crystal violet) compared to baseline", "setting": "[11]", "value": "variable results"},
      {"measurement": "biofilm mass (crystal violet) compared to baseline", "setting": "[12]", "value": "variable results"}
    ]},
    {"smiles": "CCCC(O)C(=O)O", "note": "(stereo not drawn) [2-hydroxypentanoic acid]", "values": [
      {"measurement": "Water solubility", "setting": "[1]", "value": 1640, "unit": "mM"}
    ]},
    {"smiles": "CC(O)C(=O)O", "note": "(stereo not drawn) [2-hydroxypropanoic acid]", "values": [
      {"measurement": "LD50 Dermal", "setting": "[13]", "value": ">2000 mg/kg (rabbit)"},
      {"measurement": "LC50 Inhalation", "setting": "[14]", "value": ">7.94 mg/L (rat) 4 h"}
    ]}
  ]
}
